Measurements published in patent US20160202234A1, “METHOD FOR EVALUATING, VIA BIODOSIMETRY, THE I[…] RECEIVED BY A PERSON SUBJECTED TO IONIZING RADIATION” (ACUBENS, priority 2013, published 2016).

Test system: two different cell lines, respectively sensitive S and resistant R
Assay: ratio of apoptotic cells as a function of NCS concentration, compared with irradiation dose
Assay type: cell-based
Details: concentration of 1 nM of neocarzinostatin
Description: FIG. 27 is a graph showing the change in the amount of apoptotic cells in a mixture as a function of the quantity of NCS in this mixture,
FIG. 28 is a graph showing the change in the number of apoptotic cells as a function of the irradiation dose received by an individual,
The substance used is for example neocarzinostatin (NCS). […] These graphs made it possible to determine in particular that a concentration of 1 nM of neocarzinostatin is equivalent to, that is to say produces the same effect as, an irradiation dose of 1.2 Gy. Several hair samplings are carried out on the same region of an individual, along with a plurality of blood samplings. Two of the samples are subjected to the action of NCS at a known dose, for example equivalent to 1 Gy, in reaction wells in a plate. Each sample can be treated and analysed, as described previously. One of the two samples is analysed immediately at the same time as a sample that has not received treatment, and the second is analysed after a given period Δt, for example 1 hour.

Question: For neocarzinostatin, which “irradiation dose equivalent to (produces the same effect as) the neocarzinostatin concentration” value is on record?
Answer: Its value is 1.2 Gy.
